Laboratory results: patent US9125930B2, “EGFR aptamer inhibitor for use in therapy and diagnosis” (CONSIGLIO NAZIONALE DELLE RICERCHE, priority 2010, dated 2015)

How the values were obtained:
A549 cells [1] = test: Cell viability assay, A549 cells; assay type: cell-based, human; settings: dose-dependent experiments, 0.1-10 μM
Procedure: Cell viability was assessed with CellTiter 96® AQueous One Solution Cell Proliferation Assay (Promega, Madison, Wis.) according to according to the supplier's instructions. […] The optical density (OD) was measured using a Multilabel Counter (Bio-Rad) at a wavelength of 490 nm and cell viability was calculated by the following formula: Cell viability (%)=(OD treated cells/OD control cells)×100%. FACS Analysis

A431 tumors = test: Tumor growth in A431 mouse xenograft; assay type: in vivo; settings: 200 pmoles intratumoral, three times a week for two weeks
Procedure: Athymic nude mice (nu/nu) were maintained in a sterile environment according to guidelines for Animal Care. Mice were inoculated with either 3×10^6 (in 100 μl) in vitro propagated A431 cells subcutaneously injected into each flank. Approximately 24 non-necrotic tumors for each tumor type, of about 1 cm in diameter, were randomly divided into three groups of eight mice per treatment group as follows: group 1, no treatment; group 2, treated with scrambled RNA as a negative control (200 pmols/injection); group 3, treated with CL4 42-81 (200 pmols/injection). Compounds were injected intra-tumorally in 100-1 μl volumes three times a week for two weeks. Day 0 marks the first day of injection. The aptamers may also be administered systemically, in particular when optimized by addition of polyethylene glycol (PEG).
The volume injections are small enough to preclude the compounds being forced inside the cells due to a nonspecific high-pressure injection. Tumors were measured every 3 days with calipers in three dimensions. The following formula was used to calculate tumor volume: VT=(W×L×H)×0.5236 (W, the shortest dimension; L, the longest dimension; H, the intermediate dimension). The growth curves are plotted as the means tumor volume±s.e.m. Statistical analysis of tumor size data was conducted using a one-way ANOVA. A P-value of 0.05 or less was considered to indicate a significant difference. […]

A549 cells [2] = test: Apoptosis assay by PI staining and FACS; assay type: cell-based, human; set-up: dose or concentration left out as unconfirmed; settings: A549, 24 hs or 48 hs
Procedure: For apoptosis assay, DNA content analysis was performed by staining with propidium iodide (PI) and analyzing cells by flow cytometry (FACS).
[…] Cells were incubated with 2 μg/ml propidium iodide (PI, Sigma, St. Louis, Mo.) for 30 min at 4° C. and recovered. The relative proportion of cells with DNA content indicative of apoptosis (ipoploid) was determined by FACS.

EGFR = EGFR (Homo sapiens, UniProt P00533); test: Immunoblot of EGF-dependent EGFR phosphorylation in A549 cells; assay type: cell-based; set-up: endogenous in cells; host or cells: A549; settings: 200 nM aptamer, following 5 min of EGFR stimulation
Procedure: […] The aptamers were subjected to a short denaturation-renaturation step (85° C. for 5 min, snap-cooled on ice for 2 min, and allowed to warm up to 37° C.) before each treatment. To prepare cell extracts, cells were washed twice in ice-cold PBS, and lysed in buffer A (50 mM Tris-HCl pH 8.0 buffer containing 150 mM NaCl, 1% Nonidet P-40, 2 mg/ml aprotinin, 1 mg/ml pepstatin, 2 mg/ml leupeptin, 1 mM Na3VO4). Protein concentration was determined by the Bradford assay using bovine serum albumin as the standard. The cell lysates were subjected to SDS-PAGE. Gels were electroblotted into polyvinylidene difluoride membranes (Millipore Co., Bedford, Mass.), and filters were probed with the indicated primary antibodies: anti-EGFR and anti-phospho-EGFR (Tyr1062), anti-phospho-44/42 MAP kinase (E10) (also indicated as p-Erk), anti-phospho-Akt, anti-Akt and anti-phospho-STAT3 (Tyr705), anti-ErbB2 (all from Cell Signaling, Beverly, Mass., United States); anti-Erk1, anti-EGFR, anti-ErbB3, anti-ErbB4 (C-16) (Santa Cruz Biotechnology, California, United States); anti-α-αtubulin (DM 1A) (Sigma, St. Louis, Mo.).
Proteins were visualized with peroxidase-conjugated secondary antibodies using the enhanced chemiluminescence system (GE Healthcare Bio-Sciences, Uppsala, Sweden). […]

A549 cells [3] = test: Binding of [32P]-labeled aptamer on A549 cells; set-up: species or system human; settings: binding to A549 target cells
Procedure: Binding experiments were performed with 5′-[^32P]-labeled RNA. For labeling 2′-F-Py RNAs were 5′-end dephosphorylated using bacterial alcaline phosphatase (Invitrogen, Carlsbad, Calif.) before [^32P]-5′-end-labeled using T4 kinase (Invitrogen) and γ-[^32P]-ATP (6×10^3 Ci/mmol, GE Healthcare Bio-Sciences, Uppsala, Sweden) according to the supplier's instructions.
For binding experiments on cells, 3.5×10^4 cells were plated in 24-well plates in triplicate and were incubated with CL4 42-81 aptamer the scrambled sequence used as a negative control at 100 nM concentration in 200 μl of DMEM serum free for 20 min at RT in the presence of 100 μg/ml polyinosine as a nonspecific competitor (Sigma, St. Louis, Mo.). After five washings with 500 μl DMEM, bound sequences were recovered in 300 μl of SDS 1%, and the amount of radioactivity recovered was counted.

`COc1cc2ncnc(Nc3ccc(F)c(Cl)c3)c2cc1OCCCN1CCOCC1` [gefitinib, reference compound] was tested, and the “sensitivity of A549 cell viability” value (A549 cells [1]) was “resistant”.

For “scrambled aptamer: scrambled aptamer used as negative control: 5′ UUCGUACCGGGUAGGUUGGCUUGCACAUAGAACGUGUCA 3′ (SEQ ID NO: 2) (listed as RNA, chemistry not given here) [reference compound]”, the tumor volume (A431 tumors) was “not observed”, the “effect on percentage of apoptotic cells” value (A549 cells [2]) was “No effect” and the “inhibition of EGF-dependent phosphorylation of EGFR” value (EGFR) was “No effect”.

B1: CL4: entire 92 nt aptamer generated by differential cell-SELEX on A549 cells (SEQ ID NO: 4), parent of CL4 42-81 (nucleic acid)
chain: GGGAGACAAGAAUAAACGCUCAACGACACGUUGCCAGCCGGAGCCUUAGUAACGUGCUUUGAUGUCGAUUCGACAGGAGGCUCACAACAGGC
modifications: listed as RNA, chemistry not given here
For B1, the Kd (A549 cells [3]) was 46 nM.
